From PMC12799421, “Inhibition of constitutive activity of the atypical chemokine receptor 3 by the small-molecule inverse agonist VUF16840” (Molecular Pharmacology, 2025) come the findings set out here.

SMILES strings stand for the structures.

Assay type in all cases: cell-based
Experiment [1] addresses T1, ACKR3 (Homo sapiens, UniProt P25106).
T1 construct: expressed in transfected cells; host or cells: HEK293T
The experiment is described as follows: ACKR3 signaling and trafficking sensor assays summarised together (β-arrestin1, GRK2, Rab5a, clathrin A). The method, then: (§1) For 1·10^6 HEK293T cells, a transfection mix consisting of 2 μg plasmid DNA, 12 μg linear PEI in a total volume of 200 μL 150 mM NaCl was made and thoroughly vortexed. The transfection mix was incubated for 15 minutes and consequently added to a cell suspension with a final concentration of 3·10^5 cells/mL. For functional studies this cell suspension was immediately transferred to a poly-L-lysine-coated white 96-well plate, with 3·10^4 cells per well. […] For BRET-based membrane localization experiments, the 2 μg plasmid DNA consisted of ACKR3-NL (0.05 μg), mVenus-CAAX (0.25 μg), and pcDEF3 vector DNA without insert (1.7 μg).
Next, it was explored whether VUF16840 could also affect a number of additional ACKR3 signaling or trafficking events. Both β-arrestin1 and GRK2 are known to be recruited to hACKR3 upon activation,[10]^,[23]^,[45],[46] and phosphorylation of the C-terminus is found to be crucial for ACKR3 internalization and β-arrestin1/2 recruitment,[10]^,[47]^,[48] mediated at least in part by GRK2.[10]^,[47] Additionally, clathrin A is a structural protein involved in the formation of clathrin-coated vesicles mediating receptor packaging and internalization, whereas Rab5a is a protein highly expressed in early endosomes.[32]^,[49] […] Agonist-induced internalization of ACKR3 was further monitored by measuring the interaction between clathrin A and β-arrestin 2 using a NanoBiT-based protein–protein interaction assay (Fig. 5D).
(§2) Fig. 5 Inhibition of both constitutive as well as agonist-induced ACKR3 activity by VUF16840. […] The resulting proximity between ACKR3 and β-arrestin1 (A, E), GRK2 (B, F), or Rab5a (C, G) was determined by bioluminescence resonance energy transfer. Furthermore, an interaction between clathrin A and β-arrestin2 was measured by NLuc complementation, as was determined by quantifying the relative light units (D, H). […]

In experiment [2] the target is T1, ACKR3. The experiment is described as follows: BRET ACKR3-Rab5a proximity (early endosome translocation) in HEK293T cells. The conditions noted are these: for EC50: * VUF16840 as inverse agonist, read-out: Rab5a BRET pEC50 (converted). As to the method: as §1
(§3) The sigmoidal concentration-dependent displacement of binding of the probes [^3H]VUF15485 and CXCL12-A647 by unlabeled ligands were analyzed using GraphPad Prism 8, by fitting a one-site binding model to the data, to determine the pIC50. Mean pIC50 values were determined by averaging fitted values from individual experiments. Graphs depict the pooled data of all experiments. Similarly, sigmoidal, ligand-induced concentration-dependent activation or inhibition of the proximity between ACKR3 and the protein of interest was analyzed using GraphPad Prism 8, by fitting a 3-parameter concentration-response model to the data, to determine pEC50/pIC50 values. Mean pEC50 values and pIC50 values were determined by averaging fitted values from individual experiments. Graphs depict the pooled data of all experiments, for which values are normalized, per experiment, to the fold difference compared with basal signal.
as §2
In general terms: Bioluminescence resonance energy transfer reports proximity on the nanometre scale.

For experiment [3], the target named is T1, ACKR3. Nature of the experiment: BRET β-arrestin2 recruitment to hACKR3 in HEK293T cells. The conditions noted are these: for EC50: * VUF16840 as inverse agonist, mean ± SD (N), read-out: β-arrestin2 BRET pEC50 (converted). As to the method: For bioluminescence resonance energy transfer (BRET) experiments, several BRET acceptor constructs were used that consist of the pcDEF3 vector with either GRK2 (NCBI: NM_174710.2), β-arrestin1 (NCBI: NM_174243.3), or β-arrestin2 (NCBI: XM_005220181.4) fused at the C-terminus with a SpeI/NotI linker to mVenus (NCBI: KP666136.1), as previously described.[34]
as §1
as §3, with “Mean” for “The sigmoidal concentration-dependent displacement of binding of the probes [^3H]VUF15485 and CXCL12-A647 by unlabeled ligands were analyzed using GraphPad Prism 8, by fitting a one-site binding model to the data, to determine the pIC50. Mean”

T1 sequence (P25106 whole entry): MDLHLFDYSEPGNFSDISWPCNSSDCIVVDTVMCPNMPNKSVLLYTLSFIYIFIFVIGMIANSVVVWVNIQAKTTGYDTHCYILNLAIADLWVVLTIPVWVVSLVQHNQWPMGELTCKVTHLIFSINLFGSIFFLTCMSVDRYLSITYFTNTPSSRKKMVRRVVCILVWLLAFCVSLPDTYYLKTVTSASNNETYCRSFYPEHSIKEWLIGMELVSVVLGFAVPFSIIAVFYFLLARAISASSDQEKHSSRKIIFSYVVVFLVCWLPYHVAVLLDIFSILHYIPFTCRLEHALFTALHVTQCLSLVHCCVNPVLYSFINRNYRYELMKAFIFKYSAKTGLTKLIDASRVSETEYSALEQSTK

As for `COc1cc(C(=O)N(CCC2CCCN2C)CC(C)=Cc2ccccc2F)cc(OC)c1OC` (stereo not drawn) [VUF15485, reference compound], the EC50 at ACKR3 [1] (agonist, range over assays, read-out: pEC50 values, recruitment of β-arrestin1 and GRK2 and translocation toward early endosomes (converted)) was 7.94 to 39.8 nM; on ACKR3 [2], 7.94 nM; at ACKR3 [3] it was 12.6 nM.

For `COc1ccccc1CCNC(=O)C1CN(C2CCCCC2)CCC1NC(=O)c1cc(-c2ccc(F)cc2F)on1` (stereo not drawn) [VUF16840], the IC50 on ACKR3 [1] (100 nM VUF15485, range over assays, read-out: pIC50 values, inhibition of VUF15485-responses (converted)) was 2 to 50.1 nM; on ACKR3 [2] (versus 100 nM VUF15485, read-out: Rab5a BRET, Inhibition by VUF16840 (pIC50) (converted)) it was 5.01 nM; at ACKR3 [3] (constitutive, no agonist, read-out: IC50, reduction of β-arrestin2 recruitment to hACKR3 (BRET)), 10 nM; on ACKR3 [3] (versus 100 nM CXCL11, read-out: β-arrestin2 BRET, Inhibition by VUF16840 (pIC50) (converted)), 2 nM; at ACKR3 [3] (versus 100 nM CXCL12, read-out: β-arrestin2 BRET, Inhibition by VUF16840 (pIC50) (converted)), 2.51 nM; at ACKR3 [3] (versus 100 nM VUF15485, read-out: β-arrestin2 BRET, Inhibition by VUF16840 (pIC50) (converted)), 10 nM. The EC50 is 1.58 to 10 nM at ACKR3 [1] (inverse agonist, range over all assay setups, read-out: pEC50 values, inhibition of constitutive ACKR3-mediated responses (converted)); 1.58 nM at ACKR3 [2]; 10 nM at ACKR3 [3].
